Consider 6 molecules from ChEMBL document CHEMBL4665900, “Novel Pyrido-pyrimidinones and Pteridinones as Endoribonuclease Inositol Requiring Enzyme 1 (IRE1α) Inhibitors for Treating Cancer” (ACS Med Chem Lett, 2020).

In general, IC50 refers to the concentration needed to halve the response being measured.

Serine/threonine-protein kinase/endoribonuclease IRE1, sequence (O75460 whole entry): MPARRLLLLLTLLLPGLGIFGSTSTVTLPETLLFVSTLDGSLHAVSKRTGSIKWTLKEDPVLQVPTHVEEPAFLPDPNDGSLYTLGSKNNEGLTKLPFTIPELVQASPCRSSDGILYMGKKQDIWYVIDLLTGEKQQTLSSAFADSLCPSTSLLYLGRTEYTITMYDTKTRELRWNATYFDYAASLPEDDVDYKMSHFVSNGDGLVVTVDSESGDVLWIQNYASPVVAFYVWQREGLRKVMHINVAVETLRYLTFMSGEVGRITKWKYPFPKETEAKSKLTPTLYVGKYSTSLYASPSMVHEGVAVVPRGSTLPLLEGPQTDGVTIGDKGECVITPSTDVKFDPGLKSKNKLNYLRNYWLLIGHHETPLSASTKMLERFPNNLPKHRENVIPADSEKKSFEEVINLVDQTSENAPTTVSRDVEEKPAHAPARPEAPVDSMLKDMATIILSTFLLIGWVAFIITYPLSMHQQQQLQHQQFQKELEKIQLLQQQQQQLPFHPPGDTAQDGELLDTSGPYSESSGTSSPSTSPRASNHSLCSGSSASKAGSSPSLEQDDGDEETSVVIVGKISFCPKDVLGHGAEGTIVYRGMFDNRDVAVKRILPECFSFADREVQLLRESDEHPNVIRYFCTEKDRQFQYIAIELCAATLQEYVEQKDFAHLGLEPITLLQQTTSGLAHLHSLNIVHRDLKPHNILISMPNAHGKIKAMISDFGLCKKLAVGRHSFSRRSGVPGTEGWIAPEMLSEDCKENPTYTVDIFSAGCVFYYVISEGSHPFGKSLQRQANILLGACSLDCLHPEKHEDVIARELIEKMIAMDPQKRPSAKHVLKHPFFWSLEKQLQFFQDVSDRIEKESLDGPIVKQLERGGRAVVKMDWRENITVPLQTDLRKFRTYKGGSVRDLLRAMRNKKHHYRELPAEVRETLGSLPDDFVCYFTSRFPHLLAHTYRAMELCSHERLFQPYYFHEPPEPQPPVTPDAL

The assay addresses Serine/threonine-protein kinase/endoribonuclease IRE1 (Homo sapiens, UniProt O75460). The experiment in a line: Inhibition of human His-tagged IRE1alpha expressed in Sf9 insect cells preincubated for 1 hr followed by Alexa fluor 647-labeled probe addition and measured after 1 hr by TR-FRET assay. Background: TR-FRET usually uses a lanthanide donor and a delayed reading to cut background.
`CC(C)n1c(=O)c(-c2cc(F)c(NS(=O)(=O)CC3(C(F)(F)F)CC3)c(F)c2)nc2cnc(N[C@H]3CC[C@H](N(C)C)CC3)nc21` registered an IC50 of 0.1 nM.

`COCCN(C)[C@H]1CC[C@H](Nc2ncc3cc(-c4ccc(NS(=O)(=O)Cc5ccc(F)cc5)c(F)c4)c(=O)n(C(C)C)c3n2)CC1` gave an IC50 of 0.05 nM.

The molecule `CC(C)n1c(=O)c(-c2c(F)cc(NS(=O)(=O)Cc3ccc(F)cc3)cc2F)cc2cnc(N[C@H]3CC[C@H](N(C)C)CC3)nc21` returned an IC50 of 0.08 nM.

In the case of `Cc1ccc(CS(=O)(=O)Nc2ccc(-c3nc4cnc(N[C@@H]5CNC[C@@H](F)C5)nc4n(C(C)C)c3=O)cc2F)c(C#N)c1`, the IC50 amounted to 0.09 nM.

The molecule `COc1cccc(CS(=O)(=O)Nc2c(F)cc(-c3cc4cnc(N[C@@H]5CNC[C@@H](F)C5)nc4n(C(C)C)c3=O)c(F)c2F)c1` returned an IC50 of 0.11 nM. This IC50 and that of the molecule before are within 1.5-fold of each other.

`CC(C)n1c(=O)c(-c2ccc(NS(=O)(=O)Cc3ccc(C#N)cc3)c(F)c2)nc2cnc(N[C@@H]3CNC[C@@H](F)C3)nc21` registered an IC50 of 0.1 nM.
